Converted amounts (≈) assume the structure as drawn. Read-outs that look alike come from different tables or passages of the source.
Key:
[1] = system: Staphylococcus aureus ATCC 29213; experiment: microbe, parasite or virus in culture; assay type: cell-based; conditions: Staphylococcus aureus, ATCC29213
[2] = system: Staphylococcus aureus MRSA MC-1; experiment: microbe, parasite or virus in culture; assay type: cell-based; conditions: Staphylococcus aureus, MRSA
[3] = system: Enterococcus faecium VRE 1; experiment: microbe, parasite or virus in culture; assay type: cell-based
Streptococcus pyogenes = experiment: microbe, parasite or virus in culture; assay type: cell-based
Bacillus cereus = experiment: microbe, parasite or virus in culture; assay type: cell-based
M. smegmatis = experiment: MIC assay; assay type: cell-based; conditions: Mycolicibacterium smegmatis; Table 6; read-out: MIC M. smegmatis
Bacillus anthracis = experiment: microbe, parasite or virus in culture; assay type: cell-based
Bacillus megaterium = experiment: microbe, parasite or virus in culture; assay type: cell-based; conditions: Priestia megaterium
Bacillus subtilis = experiment: microbe, parasite or virus in culture; assay type: cell-based
[4] = system: Corynebacterium pseudodiphthericum; experiment: microbe, parasite or virus in culture; assay type: cell-based; conditions: Corynebacterium pseudodiphtheriticum
[5] = system: Corynebacterium diphtheriae Tox−; experiment: microbe, parasite or virus in culture; assay type: cell-based
Corynebacterium xerosis = experiment: microbe, parasite or virus in culture; assay type: cell-based
[6] = system: Enterococcus faecium VRE 14; experiment: microbe, parasite or virus in culture; assay type: cell-based
[7] = system: Enterococcus faecalis ATCC 29212; experiment: microbe, parasite or virus in culture; assay type: cell-based; conditions: Enterococcus faecalis, ATCC29212
[8] = system: Staphylococcus aureus ATCC 25923; experiment: microbe, parasite or virus in culture; assay type: cell-based; conditions: ATCC25923
[9] = system: Staphylococcus aureus MRSA MC-4; experiment: microbe, parasite or virus in culture; assay type: cell-based
Streptococcus mitis = experiment: microbe, parasite or virus in culture; assay type: cell-based
Streptococcus agalactiae = experiment: microbe, parasite or virus in culture; assay type: cell-based
[10] = system: Streptococcus pneumoniae ATCC 49619; experiment: microbe, parasite or virus in culture; assay type: cell-based; conditions: ATCC49619
Listeria monocytogenes = experiment: microbe, parasite or virus in culture; assay type: cell-based
Mycobacterium bovis BCG = experiment: microbe, parasite or virus in culture; assay type: cell-based; conditions: Mycobacterium tuberculosis variant bovis BCG
Escherichia coli = experiment: microbe, parasite or virus in culture; assay type: cell-based
Pseudomonas aeruginosa = experiment: microbe, parasite or virus in culture; assay type: cell-based
Mycobacterium chelonae = experiment: MIC assay; assay type: cell-based; conditions: Table 6; read-out: MIC M. chelonae
Mycobacterium fortuitum = experiment: MIC assay; assay type: cell-based; conditions: Mycolicibacterium fortuitum; Table 6; read-out: MIC M. fortuitum
[11] = system: several strains of bacteria; experiment: Kirby-Bauer disc diffusion assay; assay type: cell-based; conditions: bioassay-directed fractionation
Experimental: The crude extract was then fractionated by flash column chromatography, using a 42 mm ID column, silica gel 60 as the stationary phase, and CH2Cl2 as the eluting solvent. Typically, 100-150, 10 mL fractions were collected and assayed for microbial growth inhibition. […] The column fractions, including the active component, were also analyzed by thin-layer chromatography (TLC) using Baker-flex® silica gel IB2-F plates (with fluorescent indicator) and CH2Cl2 as the eluting solvent (see FIG. 1).

[12] = system: vancomycin-resistant enterococci; experiment: organism not typed; assay type: cell-based
[13] = system: methicillin-resistant Staphylococcus aureus; experiment: microbe, parasite or virus in culture; assay type: cell-based
[14] = system: Gram-negative bacteria tested; experiment: organism not typed; assay type: cell-based; conditions: read-out: MICs
[15] = system: Gram-positive bacteria tested; experiment: organism not typed; assay type: cell-based
C. elegans = experiment: motility assay; assay type: in vivo; parameters: key to Movement score, 1/1600 / Movement score, 1/800 / Movement score, 1/400 / Movement score, 1/200 / Movement score, 1/100: normal (−); slow (+); very slow (++); not motile/paralyzed (+++); conditions: Ive 1 ng/μL in all wells
C. elegans L1 larvae = experiment: developmental assay; assay type: in vivo; parameters: key to Developmental score, 1/1600 / Developmental score, 1/800 / Developmental score, 1/400 / Developmental score, 1/200 / Developmental score, 1/100: dead (+++); distressed (++); slightly delayed (+); the same as M9-only untreated wells (−); conditions: after four days, Ive 1 ng/μL in each well

## COc1cc(O)cc(/C=C/c2ccccc2)c1 [CL-3, 3-hydroxy-5-methoxystilbene]
[1]
  MIC: 32 µg/mL (≈ 141 µM)
[1]; Table 6, read-out: MIC S. aureus ATCC 29213
  MIC: 16 µg/mL (≈ 70.7 µM)
[2]
  MIC: 32 µg/mL (≈ 141 µM)
[2]; read-out: MIC S. aureus MC-1
  MIC: 16 µg/mL (≈ 70.7 µM)
[3]; Enterococcus faecium, VRE
  MIC: 16 µg/mL (≈ 70.7 µM)
[3]; Table 3
  MIC E. faecium VRE 1, G+: 32 µg/mL (≈ 141 µM)
Streptococcus pyogenes; Streptococcus pyogenes
  MIC: 16 µg/mL (≈ 70.7 µM)
Streptococcus pyogenes; Table 3
  MIC S. pyogenes, G+: 16 µg/mL (≈ 70.7 µM)
Bacillus cereus; Bacillus cereus
  MIC: 16 µg/mL (≈ 70.7 µM)
Bacillus cereus; Table 3
  MIC B. cereus, G+ (anthrax surrogate): 16 µg/mL (≈ 70.7 µM)
M. smegmatis
  MIC: 64 µg/mL (≈ 283 µM)
Bacillus anthracis
  MIC: 4 µg/mL (≈ 17.7 µM)
Bacillus megaterium
  MIC: 64 µg/mL (≈ 283 µM)
Bacillus subtilis
  MIC: 16 µg/mL (≈ 70.7 µM)
[4]
  MIC: 16 µg/mL (≈ 70.7 µM)
[5]
  MIC: 32 µg/mL (≈ 141 µM)
Corynebacterium xerosis
  MIC: 16 µg/mL (≈ 70.7 µM)
[6]
  MIC: 16 µg/mL (≈ 70.7 µM)
[7]
  MIC: 16 µg/mL (≈ 70.7 µM)
[8]
  MIC: 32 µg/mL (≈ 141 µM)
[9]
  MIC: 32 µg/mL (≈ 141 µM)
Streptococcus mitis
  MIC: 64 µg/mL (≈ 283 µM)
Streptococcus agalactiae
  MIC: 32 µg/mL (≈ 141 µM)
[10]
  MIC: 8 µg/mL (≈ 35.4 µM)
Listeria monocytogenes
  MIC: 32 µg/mL (≈ 141 µM)
Mycobacterium bovis BCG; M bovis BCG, Example 3
  MIC: 25.6 µg/mL (≈ 113 µM)
Mycobacterium bovis BCG; Table 2, Mycobacterium bovis BCG
  MIC: 26 µg/mL (≈ 115 µM)
Escherichia coli
  MIC: > 128 µg/mL
Pseudomonas aeruginosa
  MIC: > 128 µg/mL
Mycobacterium chelonae
  MIC: 16 µg/mL (≈ 70.7 µM)
Mycobacterium fortuitum
  MIC: 16 µg/mL (≈ 70.7 µM)
[11]
  growth inhibition: inhibited the growth
[12]
  MIC: 32 µg/mL (≈ 141 µM)
[13]
  MIC: 32 µg/mL (≈ 141 µM)
[14]
  MIC: > 128 µg/mL
[15]
  growth inhibition of Gram-positive bacteria: inhibit the growth of all Gram-positive bacteria tested
C. elegans; dilution 1/100 of stock (10.24 μg/μL; SK-03-92 1.024 μg/μL)
  Movement score, 1/100: +++
C. elegans; dilution 1/200 of stock (10.24 μg/μL; SK-03-92 1.024 μg/μL)
  Movement score, 1/200: +++
C. elegans; dilution 1/400 of stock (10.24 μg/μL; SK-03-92 1.024 μg/μL)
  Movement score, 1/400: +
C. elegans; dilution 1/800 of stock (10.24 μg/μL; SK-03-92 1.024 μg/μL)
  Movement score, 1/800: −
C. elegans; dilution 1/1600 of stock (10.24 μg/μL; SK-03-92 1.024 μg/μL), overnight 20° C.
  Movement score, 1/1600: −
C. elegans L1 larvae; dilution 1/100
  Developmental score, 1/100: +++
C. elegans L1 larvae; dilution 1/200
  Developmental score, 1/200: +
C. elegans L1 larvae; dilution 1/400
  Developmental score, 1/400: −
C. elegans L1 larvae; dilution 1/800
  Developmental score, 1/800: −
C. elegans L1 larvae; dilution 1/1600
  Developmental score, 1/1600: −
